In assay [1] the test system is TREM-1 ligand expressed on resting or thrombin-activated human platelets. As to the kind of experiment: Flow cytometry binding of FITC-labelled peptides to human platelets. How it is done:
(B) Flow cytometry analysis of FITC-labelled LR17 (1 or 5 μg/mL) binding to TREM-1 ligand expressed on resting or thrombin-activated (5 UI/mL) human platelets is reversed by co-incubation with unlabelled LR17, sTLT-1 or LP17, a TREM-1 derived peptide.
Acid Citrate Dextrose blood samples were centrifuged (100 g, 10 min) to obtain Platelet-Rich Plasma. PRP was then centrifuged (550 g, 10 min) over a 36% (wt/vol) BSA gradient and platelets collected from the interphase before being washed in Tyrode's salts buffer (Sigma-Aldrich) supplemented with 5 mM EGTA. For activation, platelets were incubated for 30 minutes with 5 U/mL thrombin (Sigma-Aldrich) or 1 μg/mL E. Coli LPS (0111:B4, Sigma-Aldrich) at 37° C. and subsequently fixed with 2% (wt/vol) paraphormaldehyde (PFA, Sigma-Aldrich). Residual PFA was removed by two additional washing steps in Tyrode buffer. Activation was assessed by anti-CD62P (Beckman Coulter).
Isolated cells (neutrophils, monocytes or platelets) were blocked for aspecific binding with 10% human Ig (Sigma-Aldrich) for 1 hour on ice. Cells were incubated with recombinant soluble FITC-labelled TLT-1-peptides, FITC-labelled LP17 (or corresponding FITC-labelled scrambled peptides), PE-labelled anti-TREM-1 mAb (R&Dsystems), CD62P-FITC, CD66b-PE, CD45-PE, CD14-FITC (all from Beckman Coulter)
In general terms: A flow cytometer gives signals particle by particle.

The test system of assay [2] is TREM-1. Nature of the assay: Protein phosphorylation analysis in stimulated neutrophils. In kind it is cell-based, human. How it is done:
For these experiments, isolated human neutrophils were stimulated with TREM-1 agonist (αTREM-1, 5 μg/mL) with or without LR17 (30 μg/mL) or control LR17-scrambled peptide (30 μg/mL) at indicated times. Data are representative of at least 5 different experiments. Results are mean±SD. p values are ***p<0.001 **p<0.01 *p<0.05 [αTREM-1+LR17] versus [αTREM-1].
(A) Activation of TREM-1 phosphorylation pathway: Western Blot of lysates of neutrophils stimulated for 1, 3, 10, 30 and 60 minutes, analysed with antibody to phospho (p)-p38 and (p)-ERK1/2.
For these experiments, isolated human neutrophils or monocytes were stimulated with LPS (0.1 μg/mL) and TREM-1 agonist (αTREM-1, 5 μg/mL) with or without LR17 (30 μg/mL) or control LR17-scrambled peptide (30 μg/mL), at indicated times. Data are representative of at least 5 different experiments. Results are mean±SD. p values are ***p<0.001 **p<0.01 *p<0.05 [LPS/LR17] versus [LPS] or [LPS+αTREM-1/LR17] versus [LPS+αTREM-1].
(A) Western Blot of lysates of neutrophils stimulated for 1, 3, 10, 30 and 60 minutes, analysed with antibody to phosphor (p)-p38 and (p)-ERK1/2.
Depending on the experiment, cells were stimulated in complete medium supplemented with 100 ng/mL of E. Coli LPS (0111:B4, Sigma-Aldrich), anti-TREM-1 mAb (R&Dsystems) and TLT-1-peptides at different times and concentrations on 96-wells plates (Greiner Bio One). Supernatants were collected for cytokine measurements and cells subjected to flow cytometry or lysed for protein phosphorylation analyses and NFkB activity measurement.
Stimulated PMNs were lysed at 1, 3, 10, 30 and 60 minutes with PhosphoSafe Extraction Reagent (Novagen) and centrifuged for 5 minutes at 16,000 g at 4° C. to collect the supernatant. Protein concentration was determined according to Bradford's method (Pierce). […] Alternatively, PMNs were analyzed after 20 minutes of stimulation for a panel of multiple phosphorylated proteins by immunoblot (Human Phospho-Kinase Array, R&Dsystems). Acquisition and quantitative signals density analyses were done by LAS-4000 imager and Multi-Gauge software (Fujifilm).

[3] abbreviates: competition with unlabelled substance.

For the sequence “LQEEDAGEYGCMVDGAR (listed as Homo sapiens) [LR17]”, the “binding of FITC-labelled LR17 to platelets” value in assay [1] (FITC-labelled peptide 1 or 5 μg/mL, resting or thrombin-activated (5 UI/mL) platelets) is “binds both to resting and thrombin-activated platelets”. For the same sequence, in assay [1] (setting [3]), the “effect of co-incubation on FITC-labelled LP17 binding to platelets” value was “decreased” and the “effect of co-incubation on FITC-labelled LR17 binding to platelets” value is reported as “reversed”. Also, in assay [2] (LPS 0.1 μg/mL with or without αTREM-1, peptide 30 μg/mL), the “phosphorylation of p38 and ERK1/2” value is “decreased”. In assay [2] (TREM-1 signalling, data not shown), the “phosphorylation of mTOR, Lyn, AKT, MSK1/2, MEK 1/2, GSK 3α/β, RSK, and p53 (phosphoprotein arrays)” value is on record as “reduced”. The “p38 MAPK and ERK 1/2 phosphorylation” value in assay [2] (αTREM-1 5 μg/mL, peptide 30 μg/mL, 1-60 minutes) was “partly abrogated”.

The values are drawn from patent US9815883B2, “Inhibiting peptides derived from TREM-like transcript 1 (TLT-1) and uses thereof” (Institut National de la Sante et de la Recherche Medicale …, priority 2010, dated 2017).
